The text below walks through data of paper PMC8688955 (Frontiers in Pharmacology, 2021).

Test [1] has as its target T1, CI-AMPARs (Rattus norvegicus, UniProt P19491, Q607R).
T1 construct: activity against native calcium-permeable AMPA receptors (CP-AMPARs) and calcium-impermeable AMPA receptors (CI-AMPARs); endogenous in cells; host or cells: acutely isolated pyramidal neurons from the CA1 area of Wistar rat hippocampal slices
Description: Whole-cell patch-clamp of kainate-induced currents in isolated hippocampal CA1 pyramidal neurons. The format is cell-based, Wistar rat. To be noted: for CI-AMPARs % inhibition at 100 µM: 100 µM compound; for CI-AMPARs % inhibition at 100 µM / inhibition at 100 µM: currents induced by 100 µM kainate, −80 mV, mean ± SD, N = 5; for inhibition at 100 µM: read-out: CI-AMPARs % inhibition at 100 µM, 100 µM compound; for Difference in the % of inhibition in coapplication and preapplication protocols: coapplication with kainate vs preapplication without kainate. How it is done:
All experimental procedures were approved by the Animal Care and Use Committee of the I.M. Sechenov Institute of Evolutionary Physiology and Biochemistry of the Russian Academy of Sciences. Wistar rats (13–19 days old) were anesthetized with sevoflurane and then decapitated. Maximum effort was made to minimize the number of animals used. Brains were removed quickly and cooled to 2–4°C in an ice bath. […] The antagonism of CI-AMPARs was studied on pyramidal neurons from the CA1 area of the hippocampus.
Series resistance of about 20 MΩ was compensated by 70–80% and monitored during experiments. Currents were recorded using an EPC-8 amplifier (HEKA Electronics, Lambrecht, Germany), filtered at 5 kHz, sampled, and stored on a personal computer. Drugs were applied using the RSC-200 perfusion system (BioLogic Science Instruments, Claix, France) under computer control. The solution exchange time in the whole-cell mode was 50–60 ms. […] The pipette solution contained (in mM) CsF 100, CsCl 40, NaCl 5, CaCl2 0.5, EGTA 5, and HEPES 10 (pH was adjusted to 7.2 with CsOH). Experiments were performed at room temperature (22–24°C). […] Lamotrigine, topiramate, levetiracetam, felbamate, carbamazepine, tiagabin, vigabatrin, zonisamide, and gabapentin were purchased from Tocris Bioscience (Bristol, United Kingdom). Perampanel was from MedChemExpress (Stockholm, Sweden). Kinetics of transient processes of more than 20-ms duration was approximated by exponential functions. Experiments were performed at −80 mV holding voltage. All experimental data are presented as mean ± SD estimated from at least four experiments. Significance of the effects was tested with paired t test. Differences were considered significant at p < 0.05. 3D structures of compounds were calculated by the ZMM software (zmmsoft.ca).
On the technique in general: Patch clamp records ionic current or voltage across a cell membrane.

The next test has as its system CP-AMPARs. Kind of test: Whole-cell patch-clamp of kainate-induced currents in isolated striatal giant interneurons. The format is cell-based, Wistar rat. To be noted: for CP-AMPARs % inhibition at 100 µM: 100 µM compound, currents induced by 100 µM kainate, mean ± SD, N = 5; for IC50: read-out: IC50 CP-AMPARs, kainate-induced currents. How it is done:
All experimental procedures were approved by the Animal Care and Use Committee of the I.M. Sechenov Institute of Evolutionary Physiology and Biochemistry of the Russian Academy of Sciences. Wistar rats (13–19 days old) were anesthetized with sevoflurane and then decapitated. Maximum effort was made to minimize the number of animals used. Brains were removed quickly and cooled to 2–4°C in an ice bath. […] Single neurons were freed from slices by vibrodissociation ([Vorobjev, 1991]). The antagonism of CP-AMPARs was studied on striatal giant interneurons ([Bernard et al., 1997]; [Gotz et al., 1997]), which were identified by their shape and size. […] The antagonism of CI-AMPARs was studied on pyramidal neurons from the CA1 area of the hippocampus.
Series resistance of about 20 MΩ was compensated by 70–80% and monitored during experiments. Currents were recorded using an EPC-8 amplifier (HEKA Electronics, Lambrecht, Germany), filtered at 5 kHz, sampled, and stored on a personal computer. Drugs were applied using the RSC-200 perfusion system (BioLogic Science Instruments, Claix, France) under computer control. The solution exchange time in the whole-cell mode was 50–60 ms. The extracellular solution contained (in mM) NaCl 143, KCl 5, MgCl2 2.0, CaCl2 2.5, D-glucose 18, and HEPES 10 (pH was adjusted to 7.3 with HCl). The pipette solution contained (in mM) CsF 100, CsCl 40, NaCl 5, CaCl2 0.5, EGTA 5, and HEPES 10 (pH was adjusted to 7.2 with CsOH). Experiments were performed at room temperature (22–24°C). […] Lamotrigine, topiramate, levetiracetam, felbamate, carbamazepine, tiagabin, vigabatrin, zonisamide, and gabapentin were purchased from Tocris Bioscience (Bristol, United Kingdom). Perampanel was from MedChemExpress (Stockholm, Sweden). Kinetics of transient processes of more than 20-ms duration was approximated by exponential functions. Experiments were performed at −80 mV holding voltage. All experimental data are presented as mean ± SD estimated from at least four experiments. Significance of the effects was tested with paired t test. Differences were considered significant at p < 0.05. 3D structures of compounds were calculated by the ZMM software (zmmsoft.ca).

Test [2] concerns postsynaptic AMPA receptors. On the set-up: method as in Lee et al., 2008. To be noted: 30 and 100 µM lamotrigine; ref Lee et al., 2008; cited from earlier work.
For the next test, the system named is hGluA1-4 receptors. Also on record: method as in Fukushima et al. (2020). To be noted: ref Fukushima et al. (2020); cited from earlier work.
A further test has as its system AMPAR. Also on record: method as in Dudic and Reiner, 2019. Particulars: ref Dudic and Reiner, 2019; cited from earlier work.
Test [3] relates to AMPA and kainate-evoked Ca^2+ uptake. To be noted: 30 and 100 µM topiramate; ref Poulsen et al., 2004; cited from earlier work.
The next test has as its system AMPA receptors. Also on record: method as in Carunchio et al., 2007. Particulars: 200 µM levetiracetam; ref Carunchio et al., 2007; cited from earlier work.
Test [4] deals with T1, CI-AMPARs. On the set-up: method as in Barygin, 2016. To be noted: ref Barygin, 2016, cited from earlier work.
Where [5] appears, read: double-pulse protocol, 30-s pause.

Where two headings read alike, the source gives them in different places.

T1 sequence (P19491 22-883 Q607R): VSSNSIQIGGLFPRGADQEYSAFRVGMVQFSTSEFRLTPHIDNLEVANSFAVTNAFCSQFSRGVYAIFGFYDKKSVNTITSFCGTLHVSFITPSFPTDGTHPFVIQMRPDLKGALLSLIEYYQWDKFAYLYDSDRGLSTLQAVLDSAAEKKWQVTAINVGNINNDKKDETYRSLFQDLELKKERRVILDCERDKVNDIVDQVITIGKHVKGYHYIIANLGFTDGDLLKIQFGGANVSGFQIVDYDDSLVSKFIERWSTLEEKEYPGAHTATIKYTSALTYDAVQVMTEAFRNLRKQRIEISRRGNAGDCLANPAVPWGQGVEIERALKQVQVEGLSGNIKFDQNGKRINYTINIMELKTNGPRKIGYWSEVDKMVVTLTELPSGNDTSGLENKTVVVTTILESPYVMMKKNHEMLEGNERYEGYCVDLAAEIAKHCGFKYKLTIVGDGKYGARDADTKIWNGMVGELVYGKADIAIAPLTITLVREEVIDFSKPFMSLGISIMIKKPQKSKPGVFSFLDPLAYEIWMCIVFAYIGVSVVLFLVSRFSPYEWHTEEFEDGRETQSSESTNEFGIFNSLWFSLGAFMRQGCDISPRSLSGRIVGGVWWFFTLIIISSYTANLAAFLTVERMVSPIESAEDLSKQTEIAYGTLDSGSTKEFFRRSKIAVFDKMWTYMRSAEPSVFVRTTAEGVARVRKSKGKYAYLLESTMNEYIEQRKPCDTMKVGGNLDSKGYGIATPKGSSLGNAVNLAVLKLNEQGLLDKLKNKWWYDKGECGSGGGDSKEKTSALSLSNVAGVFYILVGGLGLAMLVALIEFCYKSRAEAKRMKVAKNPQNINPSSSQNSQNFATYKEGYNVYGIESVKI

Usually inhibition stands for the relative decrease from the control value, in per cent. For `Nc1nnc(-c2cccc(Cl)c2Cl)c(N)n1` [Lamotrigine], on CI-AMPARs [1], the “CI-AMPARs % inhibition at 100 µM” value is recorded as 14 ± 5% and the inhibition at 100 µM was not above 20%. Moreover, the “CP-AMPARs % inhibition at 100 µM” value in the test on CP-AMPARs (−80 mV) is 13 ± 3%. For the same molecule, in the test with CP-AMPARs (−80 mV, listed as lamotrigine), the “CP-AMPARs % inhibition at 100 µM” value is listed as not above 20%. Also, in test [2], the “decrease of the amplitude of the currents induced by exogenously applied AMPA” value is given as 10%. The “activity against hGluA1-4 receptors” value in the test on hGluA1-4 receptors is given as “did not find significant activity”.
By IC50 is commonly meant the concentration at which inhibition is half-maximal. `O=c1[nH]c2cc([N+](=O)[O-])c([N+](=O)[O-])cc2[nH]c1=O` [DNQX]: the IC50 in the test on CP-AMPARs (Hill equation, −80 mV) came out at 310 ± 60 nM. In addition, the pH-dependence entry in the test with AMPAR was “Yes ^a”.
Take `CC1(C)O[C@@H]2[C@@H](CO[C@@]3(COS(N)(=O)=O)OC(C)(C)O[C@@H]23)O1` [Topiramate]: on CI-AMPARs [1], the “CI-AMPARs % inhibition at 100 µM” value came out at 12 ± 2% and the inhibition at 100 µM was not above 20%. Besides, the “CP-AMPARs % inhibition at 100 µM” value in the test on CP-AMPARs (−80 mV) is 14 ± 2%. Further, the “CP-AMPARs % inhibition at 100 µM” value in the test on CP-AMPARs (−80 mV, listed as topiramate) is not above 20%. Further, in the test on hGluA1-4 receptors, the “activity against hGluA1-4 receptors” value is given as “did not find significant activity”. Also, the “inhibition of AMPA and kainate-evoked Ca^2+ uptake” value in test [3] is “up to 60%”.
For the molecule `CC[C@@H](C(N)=O)N1CCCC1=O` [Levetiracetam], the “CI-AMPARs % inhibition at 100 µM” value on CI-AMPARs [1] is 6 ± 2%; at CI-AMPARs [1] (listed as levetiracetam) it was not above 20%. Further, the “CP-AMPARs % inhibition at 100 µM” value in the test on CP-AMPARs (−80 mV) is given as 9 ± 3%; with CP-AMPARs (−80 mV, listed as levetiracetam), not above 20%. Besides, the “decrease of the amplitude of kainate-induced current” value in the test with AMPA receptors is on record as “about 26%”. In addition, the “activity against hGluA1-4 receptors” value in the test with hGluA1-4 receptors is reported as “did not find significant activity”.
Take `N#Cc1ccccc1-c1cc(-c2ccccn2)cn(-c2ccccc2)c1=O` [Perampanel]: at CI-AMPARs [1], the “Activity drop at high (500 µM) kainate concentration” value was “more active in the case of lower kainate concentration and Yes”; the “More active against CI-AMPARs” value is “equipotently inhibited both receptor subtypes and No”; the “Difference in the % of inhibition in coapplication and preapplication protocols” value is reported as “No”. In addition, at CI-AMPARs [1] (500 nM perampanel, double-pulse protocol, n = 4), the “time constant τ of the response to testing kainate application in the trapping protocol” value is 41 ± 12 ms. The “decrease in the % of inhibition with the increase in agonist concentration” value on CI-AMPARs [1] (50 vs 500 µM kainate) is recorded as 30–40%. Also, the “Difference in the % of inhibition in coapplication and preapplication protocols” value at CI-AMPARs [1] (listed as perampanel) is “equally effective in preapplication and coapplication protocols”. On CI-AMPARs [1] (setting [5]), the “Trap in kainate 100 µM” value is recorded as “No” and the “Trap in kainate 500 µM” value was “No”. Besides, half-maximal inhibition against CI-AMPARs [1] (kainate-induced currents) (IC50) required 63 ± 8 nM. Also, the half-maximal inhibitory concentration (IC50) in the test with CP-AMPARs came out at 60 ± 6 nM. For the same molecule, on CI-AMPARs [4] (isolated CA1 pyramidal neurons), the “reduction in activity by cyclothiazide” value is reported as “ca. 20 fold”. Besides, at CI-AMPARs [4], the “Activity drop in the presence of cyclothiazide” value is “Yes”. In addition, the “Activity drop in the presence of cyclothiazide” value on CI-AMPARs [4] (listed as perampanel) is “less active in the presence of cyclothiazide”.
